Patent publication US10258595B2, “Pharmaceutical formulation for histone deacetylase inhibitors” (TetraLogic Shape UK Ltd, priority 2010, dated 2019)
Where two headings read alike, the source gives them in different places.

How the values were obtained:
[1] = Protocol: The method has historic precedent for accurately predicting in vivo percutaneous absorption kinetics.
To assure the integrity of each skin section, its permeability to tritiated water was determined before application of the test products.

[2] = Exposure of gels to laboratory light; assay type: physicochemical; conditions: exposure to laboratory light for up to five days
[3] = Saturation solubility of compound (II) in the gel formulation; assay type: physicochemical; conditions: acidified nonaqueous gel, refrigerated storage (2-8° C.)
[4] = Degradation of compound (II) in neutral ethanol; assay type: physicochemical; conditions: room temperature, 24 hours
[5] = skin dosed with compound (II) formulations

With O=C(O)c1ccc(O)cc1 [4-OH Benzoic acid] the “presence of degradation products in the samples” value (shortened to “presence of degradation products”) [1, 5] was “present in the majority of the samples”.

For COC(=O)c1ccc(OC(=O)CCCCCCC(=O)NO)cc1 [Compound (II)], the “effect of light on assay values for compound (II)” value [2] was “did not significantly affect”, the “formulation's saturation solubility for compound (II)” value [3] was “approximately 1.6 % w/w” and the “degradation of compound (II)” value [4] was “approximately 50%”. The “detectable compound (II) found in the epidermis” value ([1]; human, 24 h, pH 6) was 0.3-0.9% and the “detectable compound (II) found in the surface wash” value ([1]; human, 24 h, pH 6) was 20-69%.

With O=C(O)CCCCCCC(=O)NO [Compound (III)] the “presence of degradation products” value [1] was “present in the majority of the samples”.

For COC(=O)c1ccc(O)cc1 [Methylparaben], the “presence of degradation products” value [1, 5] was “present in the majority of the samples”.
